# Reference: ChEMBL document CHEMBL3297673, “Antifungal amphidinol 18 and its 7-sulfate derivative from the marine dinoflagellate Amphidinium carterae” (J Nat Prod, 2014)
# Activity calls are given as the source filed them. No cut-off for these calls is given here.
# Experiments:
# Candida albicans = assay: Antifungal activity against Candida albicans after 48 hrs by broth microdilution method; format: functional
# [1] = Toxicity in erythrocytes (unknown origin) assessed as hemolytic activity; format: cell-based; settings: erythrocyte
MIC (Candida albicans) [µg/mL],Structure (SMILES),Activity [1],Activity (Candida albicans)
9,C=C/C=C/CC/C=C/C=C/C=C/CC/C=C/[C@H](O)[C@H](O)[C@@H]1O[C@@H]([C@H](O)[C@H](O)C(=C)CC[C@@H](O)[C@H]2C[C@@H](O)[C@@H](O)[C@H]([C@@H](O)[C@H](O)/C=C(\C)CCC(O)CC(O)C(O)C(C)CC(O)C(O)CC(C)CCC(O)CC(=O)CC(O)CCCC(O)CCCCC(O)CO)O2)C[C@@H](O)[C@H]1O (some centres undefined),Toxic,
,C=C/C=C/CC/C=C/C=C/C=C/CC/C=C/[C@H](O)[C@H](O)[C@@H]1O[C@@H]([C@H](O)[C@H](O)C(=C)CC[C@@H](O)[C@H]2C[C@@H](O)[C@@H](O)[C@H]([C@@H](O)[C@H](O)/C=C(\C)CCC(O)CC(O)C(O)C(C)CC(O)C(O)CC(C)CCC(O)CC(=O)CC(O)CCCC(CCCCC(O)CO)OS(=O)(=O)[O-])O2)C[C@@H](O)[C@H]1O.[Na+] (some centres undefined),Toxic,inactive
